Experimental data taken from US11484562B2, “Composition for preventing or treating obesity comprising natural mixture extracts” (KOREA INSTITUTE OF ORIENTAL MEDICINE, priority 2018, dated 2022).

Tests used:
[1] = people taking Reductil, background statement; cited from earlier work
pancreatic lipase = biological target: T1, pancreatic lipase (Homo sapiens, UniProt P16233); settings: background statement; cited from earlier work
T1 sequence (P16233 17-465): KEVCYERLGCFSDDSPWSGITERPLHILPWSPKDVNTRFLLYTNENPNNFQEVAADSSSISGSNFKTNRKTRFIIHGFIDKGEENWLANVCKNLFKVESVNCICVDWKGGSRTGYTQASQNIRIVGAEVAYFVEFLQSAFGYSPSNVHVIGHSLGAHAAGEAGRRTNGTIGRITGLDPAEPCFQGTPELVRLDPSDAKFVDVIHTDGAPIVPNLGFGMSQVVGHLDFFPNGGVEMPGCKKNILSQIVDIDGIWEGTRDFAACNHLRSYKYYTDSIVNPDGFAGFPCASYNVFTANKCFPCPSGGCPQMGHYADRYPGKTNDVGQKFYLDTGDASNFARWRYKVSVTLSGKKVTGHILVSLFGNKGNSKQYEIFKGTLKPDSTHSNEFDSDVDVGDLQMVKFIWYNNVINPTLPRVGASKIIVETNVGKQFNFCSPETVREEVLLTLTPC

high-fat diet-fed mice = assay: Anti-obesity effect by repeated administration for 8 weeks in obesity model induced by high-fat diet; type: in vivo, C57BL/6 mice; settings: HFD mice
Procedure: 6-week-old male C57BL/6 mice (Orient Bio) were used after being acclimated for one week. A high-fat diet was fed to induce obesity. D12451 (Calorie composition: 45% of fats, 35% of carbohydrates, and 20% of proteins, Research Diets, Inc.) was used as the high-fat diet, and Purina Rodent Chow was used as a normal diet. The mice were allowed to freely access feed and drinking water. The CMO1 mixture was administered together with the […] feed at a weight ratio of 0.1% (w/w) and 0.25% (w/w). Xenical™ (orlistat, Sigma, MO, USA), as a control drug, was administered together with the […] feed in a weight ratio of 0.1% (w/w). A daily dose of the CMO1 mixture, calculated based on an average daily feed intake, was 70 mg/kg/day in the case of 0.1%, and 190 mg/kg/day in the case of 0.25%, and a daily dose of Xenical™ was […]. Body weights and feed intakes were measured every week, and organs were excised and weighed in autopsy after 8 weeks and then stored at −80° C. In autopsy, blood was collected from the abdominal vein after laparotomy under deep anesthesia. The blood was stored in a cryogenic refrigerator according to analysis conditions and thawed immediately before initiating the experiment. Levels of total cholesterol, triglyceride, HDL cholesterol, and LDL cholesterol were analyzed using an automatic blood biochemistry analyzer (Hitachi, Japan). In order to analyze size changes in adipocytes and hepatocytes caused by accumulation of fats, the organ was immobilized with 10% neutralized formalin (Microme, USA) for 24 hours, embedded into paraffin blocks via a general tissue treatment process, and sectioned into 4 μm slices. The slices were hydrated and stained with hematoxylin and eosin (H&E). The stained tissue was observed using an optical microscope (BX51, Olympus, Japan) to measure sizes of cells. […] All measurement values of each experiment are expressed as mean±standard error. […]

[2] = during 8-week administration in feed

In the case of `CC(C)CC(N(C)C)C1(c2ccc(Cl)cc2)CCC1` (centres unmarked) [Reductil, Sibutramine], the “higher number of cardiovascular events versus a control group” value [1] is listed as 16%.

For `CCCCCCCCCCC[C@@H](C[C@@H]1OC(=O)[C@H]1CCCCCC)OC(=O)[C@H](CC(C)C)NC=O` [Xenical, Orlistat], the “inhibition of absorption of dietary fat” value (pancreatic lipase) is listed as “approximately 30%”, the hardness of excrement (high-fat diet-fed mice; 8-week administration in feed) is listed as “very soft excrement” and the “appearance of hair during administration” value (high-fat diet-fed mice; [2]) is listed as “oily and lumpy hair”. The “diarrhea (side effect)” value (high-fat diet-fed mice; [2]) was “serious diarrhea”.
